Laboratory results published in patent publication US20020076736A1, “Methods of affecting laminin 5 processing” (priority 2000, published 2002).
“Also recorded” adds a separate entry of the source.

Tests used:
MMP-1 = target: T1, MMP-1 (Homo sapiens, UniProt P03956); assay: Inhibition of MMP-1 activity; format: biochemical
T1 sequence (P03956 100-469): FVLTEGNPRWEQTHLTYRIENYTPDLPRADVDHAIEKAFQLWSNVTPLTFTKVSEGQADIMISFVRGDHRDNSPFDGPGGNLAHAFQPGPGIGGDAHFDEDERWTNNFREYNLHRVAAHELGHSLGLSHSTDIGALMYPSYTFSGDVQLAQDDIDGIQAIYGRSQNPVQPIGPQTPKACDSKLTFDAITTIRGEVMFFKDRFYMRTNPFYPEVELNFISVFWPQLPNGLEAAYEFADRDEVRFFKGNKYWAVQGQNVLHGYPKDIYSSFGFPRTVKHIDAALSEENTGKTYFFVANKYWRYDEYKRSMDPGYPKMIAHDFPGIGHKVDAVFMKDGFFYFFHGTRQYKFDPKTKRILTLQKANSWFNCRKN

MMP-2 = target: T2, MMP-2 (Homo sapiens, UniProt P08253); assay: Inhibition of MMP-2 activity; format: biochemical
T2 sequence (P08253 110-660): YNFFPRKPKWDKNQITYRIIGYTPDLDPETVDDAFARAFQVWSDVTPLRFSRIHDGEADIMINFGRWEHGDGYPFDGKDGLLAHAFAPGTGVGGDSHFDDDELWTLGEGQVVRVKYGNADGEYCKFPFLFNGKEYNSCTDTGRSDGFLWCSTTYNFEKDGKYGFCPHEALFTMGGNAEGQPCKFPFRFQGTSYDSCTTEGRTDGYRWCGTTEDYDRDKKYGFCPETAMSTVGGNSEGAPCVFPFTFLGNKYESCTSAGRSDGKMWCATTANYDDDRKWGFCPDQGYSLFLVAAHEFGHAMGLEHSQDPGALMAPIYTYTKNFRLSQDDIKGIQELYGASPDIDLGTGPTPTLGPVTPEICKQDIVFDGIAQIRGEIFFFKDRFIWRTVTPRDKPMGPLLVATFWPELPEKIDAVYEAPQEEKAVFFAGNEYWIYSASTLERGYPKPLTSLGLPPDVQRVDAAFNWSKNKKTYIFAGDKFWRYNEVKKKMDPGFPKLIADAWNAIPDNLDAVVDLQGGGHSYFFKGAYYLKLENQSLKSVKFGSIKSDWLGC

MMP-9 = MMP-9 (Homo sapiens, UniProt P14780); assay: Inhibition of MMP-9 activity; format: biochemical
MMP-9, sequence (P14780 94-707, species assumed): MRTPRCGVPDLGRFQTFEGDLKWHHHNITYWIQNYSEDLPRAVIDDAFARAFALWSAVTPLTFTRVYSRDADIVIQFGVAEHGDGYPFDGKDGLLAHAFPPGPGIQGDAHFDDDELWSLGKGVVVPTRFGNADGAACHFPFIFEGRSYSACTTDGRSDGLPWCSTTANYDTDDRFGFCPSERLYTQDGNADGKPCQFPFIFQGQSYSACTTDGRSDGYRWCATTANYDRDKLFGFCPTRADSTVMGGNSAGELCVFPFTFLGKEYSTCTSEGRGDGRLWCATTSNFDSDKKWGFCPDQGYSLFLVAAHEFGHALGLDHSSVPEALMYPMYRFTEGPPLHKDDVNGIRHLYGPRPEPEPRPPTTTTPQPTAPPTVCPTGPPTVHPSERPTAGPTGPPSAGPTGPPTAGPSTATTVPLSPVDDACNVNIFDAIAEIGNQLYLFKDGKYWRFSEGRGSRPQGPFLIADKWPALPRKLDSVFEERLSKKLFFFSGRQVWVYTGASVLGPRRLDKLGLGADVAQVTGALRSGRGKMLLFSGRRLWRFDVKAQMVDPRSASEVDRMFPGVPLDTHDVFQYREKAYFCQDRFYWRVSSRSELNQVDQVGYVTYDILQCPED

MT1-MMP = MT1-MMP (Homo sapiens, UniProt P50281); assay: Inhibition of MT1-MMP activity; format: biochemical
cultured cells = assay: Toxicity to cultured cells; format: cell-based
[1] = test system: laminin 5 processing in normal human keratinocytes; assay: Laminin 5 processing in keratinocyte cultures, western blot; format: cell-based
Protocol: Each of the inhibitors was added to freshly plated cultures of normal human keratinocytes. After 16 hours, laminin 5 was extracted from cultures and analyzed by western blot using a polyclonal antibody to laminin 5.

[2] = test system: laminin 5 processing in normal immortalized keratinocytes (NIK); assay: Laminin 5 processing in normal immortalized keratinocytes, western blot; format: cell-based; settings: 1, 5, 8 μM; 48 hours
[3] = test system: laminin 5 processing in squamous cell carcinoma cell line SCC-15; assay: Laminin 5 processing in SCC-15 cells, western blot; format: cell-based; settings: 1, 5, 10 μM; 48 hours
Protocol: (§1) This is shown by western blot analysis. […] (FIG. 13: lane 1, control; lane 2, 1 μM; lane 3, 5 μM; lane 4, 10 μM.)

[4] = test system: laminin 5 processing in squamous cell carcinoma cell line SCC-25; assay: Laminin 5 processing in SCC-25 cells, western blot; format: cell-based, human; settings: 1, 5, 10 μM; 48 hours
Protocol: as §1

mTll-1 = mTll-1 (Homo sapiens, UniProt O43897); assay: Cleavage of unprocessed laminin 5 matrix by mTll-1, western blot; format: biochemical; settings: 10 μM
mTll-1, sequence (O43897 148-1013): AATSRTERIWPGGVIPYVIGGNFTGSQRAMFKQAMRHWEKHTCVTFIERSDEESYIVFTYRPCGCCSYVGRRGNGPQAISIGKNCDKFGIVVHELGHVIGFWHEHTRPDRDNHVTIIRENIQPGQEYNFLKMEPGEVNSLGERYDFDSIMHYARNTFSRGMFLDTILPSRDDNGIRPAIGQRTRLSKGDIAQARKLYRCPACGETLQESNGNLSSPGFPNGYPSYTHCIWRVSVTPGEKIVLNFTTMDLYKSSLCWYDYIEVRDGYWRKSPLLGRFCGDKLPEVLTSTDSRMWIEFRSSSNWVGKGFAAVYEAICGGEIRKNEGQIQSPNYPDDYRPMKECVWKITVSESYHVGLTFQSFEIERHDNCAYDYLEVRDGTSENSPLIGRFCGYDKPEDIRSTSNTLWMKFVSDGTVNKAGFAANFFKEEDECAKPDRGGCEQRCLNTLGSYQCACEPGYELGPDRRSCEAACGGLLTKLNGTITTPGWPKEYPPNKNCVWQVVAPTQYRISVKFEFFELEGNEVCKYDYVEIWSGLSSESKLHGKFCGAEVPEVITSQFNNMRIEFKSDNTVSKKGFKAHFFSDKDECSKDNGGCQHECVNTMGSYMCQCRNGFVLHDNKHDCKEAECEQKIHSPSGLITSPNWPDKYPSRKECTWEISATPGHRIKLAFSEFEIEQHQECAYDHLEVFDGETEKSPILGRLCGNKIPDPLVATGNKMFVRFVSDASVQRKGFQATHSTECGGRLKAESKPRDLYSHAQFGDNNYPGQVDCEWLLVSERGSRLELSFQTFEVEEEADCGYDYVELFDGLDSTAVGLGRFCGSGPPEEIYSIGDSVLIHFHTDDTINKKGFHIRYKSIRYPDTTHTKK
Protocol: (§2) The processing of laminin 5 by various BMP-1 related proteins was examined. […] The cells were then removed from the culture dish by 20 mM ammonium sulfate, the dish was washed, and the matrix was incubated in increasing amounts of each BMP-1 related protein. After proteolytic digestion, the matrix was extracted and examined by western blot analysis. […] BMP-1 and mTLL-2 cleaved the γ2 chain of laminin 5.

mTll-2 = mTll-2 (Homo sapiens, UniProt Q9Y6L7); assay: Cleavage of unprocessed laminin 5 matrix by mTll-2, western blot; format: biochemical; settings: 10 μM
mTll-2, sequence (Q9Y6L7 150-1015): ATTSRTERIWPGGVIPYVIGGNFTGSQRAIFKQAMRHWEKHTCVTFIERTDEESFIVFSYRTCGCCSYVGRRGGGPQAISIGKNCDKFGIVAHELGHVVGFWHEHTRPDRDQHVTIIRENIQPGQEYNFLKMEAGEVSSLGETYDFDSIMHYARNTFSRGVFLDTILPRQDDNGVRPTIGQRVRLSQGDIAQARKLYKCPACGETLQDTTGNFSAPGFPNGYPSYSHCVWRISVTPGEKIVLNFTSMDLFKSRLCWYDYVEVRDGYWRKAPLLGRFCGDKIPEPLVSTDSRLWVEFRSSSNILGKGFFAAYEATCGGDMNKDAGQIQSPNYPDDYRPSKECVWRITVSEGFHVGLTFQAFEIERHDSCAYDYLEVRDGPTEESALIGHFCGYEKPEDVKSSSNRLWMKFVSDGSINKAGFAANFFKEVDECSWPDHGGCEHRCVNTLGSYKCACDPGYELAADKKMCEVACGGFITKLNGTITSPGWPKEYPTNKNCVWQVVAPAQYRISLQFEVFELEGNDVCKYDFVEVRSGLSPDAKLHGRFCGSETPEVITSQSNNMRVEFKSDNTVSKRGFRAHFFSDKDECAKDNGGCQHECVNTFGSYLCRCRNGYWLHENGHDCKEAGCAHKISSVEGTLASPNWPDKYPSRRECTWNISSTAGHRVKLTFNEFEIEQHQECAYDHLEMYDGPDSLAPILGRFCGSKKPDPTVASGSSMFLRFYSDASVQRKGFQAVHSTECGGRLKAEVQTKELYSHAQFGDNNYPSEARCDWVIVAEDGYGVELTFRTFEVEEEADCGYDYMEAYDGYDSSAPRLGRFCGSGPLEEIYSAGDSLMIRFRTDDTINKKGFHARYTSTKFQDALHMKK
Protocol: as §2

keratinocytes = assay: Keratinocyte migration, Boyden chambers; format: cell-based
Protocol: Compounds 1 and 2 were used to examine the functional effects of processing by BMP-1 related proteins on keratinocyte migration. […] Keratinocytes were analyzed for migration in Boyden chambers in the presence of increasing amounts of the inhibitors. […] (Koivunen et al. (1999) Nature Biotechnology 17:768-774.)

[5] = test system: normal human keratinocytes; assay: Scratch assay, normal human keratinocytes; format: cell-based; settings: 10 μM; 24 hours
Protocol: (§3) To approximate in vivo epidermal cell migration, during which epidermal cells move as sheets, scratch assays were utilized. Normal human keratinocytes were plated to confluence in the presence of either of the inhibitors (10 μM) or DMSO, and the cells allowed to attach for 6 hours. A 2 mm scratch was produced in the culture, marked, and the migration of the cells studied for the following 24 to 48 hours. […] (FIG. 7B.) When scratched plates were subsequently washed after 24 hours of incubation with the inhibitors, and incubated for an additional 24 hours in the absence of inhibitors, normal migration equivalent to that of the control conditions was noted.

[6] = test system: squamous carcinoma cell line SCC-25; assay: Scratch assay, SCC-25; format: cell-based, human
Protocol: as §3
In addition, squamous carcinoma cell line SCC-25 (ATCC Number CRL-1628) was examined by the described scratch assay using the inhibitors. […] Washing out of the inhibitors for an additional 48 hour time period restored normal SCC migration.
(§4) A dose-dependent study of Compound 2 was performed on keratinocyte cultures. In these assays, a scratch was placed in a confluent layer of cells, and the migration of the cells into the scratched area was assessed after 48 hours. In the absence of inhibitor, normal immortalized keratinocytes (NIK) migrated into the scratch area.

[7] = test system: normal immortalized keratinocytes (NIK); assay: Scratch assay, normal immortalized keratinocytes; format: cell-based
Protocol: as §4

[8] = test system: squamous cell carcinoma cell line SCC-15; assay: Scratch assay, SCC-15; format: cell-based; settings: 1, 5, 10 μM; 48 hours
squamous carcinoma cells = assay: Migration of squamous carcinoma cells (general statement); format: cell-based
normal keratinocytes = assay: Keratinocyte detachment by trypsin; format: cell-based; settings: cultured 24 hours with compound; 0.05% trypsin
Excerpt: The mode of attachment of keratinocytes to processed and unprocessed laminin 5 was examined by two methods. […] (FIG. 20.)

SCC-25 cells = assay: Matrigel invasion chamber, SCC-25; format: cell-based, human; settings: 5 μM; 24 hours
Protocol: (§5) The assay is a standard in vitro measure of tumor cell invasion. Tumor cells are plated atop a layer of fabricated basement membrane and allowed to migrate over the course of 24 hours towards conditioned 3T3 medium, which contains a chemo-attractant, located in a lower chamber. […] (FIG. 25.)

SCC-15 cells = assay: Matrigel invasion chamber, SCC-15; format: cell-based; settings: 5 μM; 24 hours
Protocol: as §5

SiHa cells = assay: Matrigel invasion chamber, SiHa; format: cell-based; settings: 24 hours; cell line unable to produce laminin 5
Protocol: as §5

SCC-25 = assay: MTT toxicity assay, SCC-25; format: cell-based, human; settings: 24 hour
SCC-15 = assay: MTT toxicity assay, SCC-15; format: cell-based; settings: 24 hour
SiHa = assay: MTT toxicity assay, SiHa; format: cell-based; settings: 24 hour

Protocol for KLASV cells: To allow for attachment to the tissue culture dish, KLASV cells were plated in tissue culture wells previously coated with type I collagen.

In the case of `COc1ccc(CCN(CCC(=O)NO)S(=O)(=O)c2ccc(NC(=O)NCc3ccccc3)cc2)cc1` [Compound 2], the “inhibition of activity of MMP-1” value (MMP-1) is reported as “no inhibition”, the “inhibition of activity of MMP-2” value (MMP-2) is reported as “no inhibition” and the “inhibition of activity of MMP-9” value (MMP-9) is reported as “no inhibition”. The “inhibition of activity of MT1-MMP” value (MT1-MMP) was “no inhibition”, the “toxicity to cultured cells at 100 times inhibitory levels” value (cultured cells; 100 times the concentration which inhibited BMP-1 activity) was “nontoxic” and the “toxic effect on cells” value (cultured cells; cell culture) was “nontoxic; also recorded: non-toxic; also recorded: no toxic effect on cells”. The “processing of laminin 5 deposited by cultured keratinocytes” value ([1]; 10 μM) was “prevented processing of laminin 5”, the “level of expression of laminin 5” value ([1]; 16 hours, western blot) was “did not significantly change” and the “processing of the α3 and γ2 chains of laminin 5” value ([1]; 16 hours, western blot) was “completely inhibited”. For the same compound, the “laminin 5 α3 chain and γ2 chain processing, dose dependence” value ([1]; dose-dependent manner) was “inhibited laminin 5 α3 chain and γ2 chain processing”, the “processing of laminin 5 in NIK, dose dependence” value [2] was “dose-dependent effect” and the “processing of laminin 5 in SCC-15, dose dependence” value [3] was “dose-dependent effect”. The “processing of laminin 5 in SCC-25, dose dependence” value [4] was “dose-dependent effect”, the “cleavage of laminin 5 α3 chain by mTLL-1” value (mTll-1) was “inhibited cleavage of laminin 5 α3 chain” and the “cleavage of laminin 5 α3 chain by mTLL-2” value (mTll-2) was “inhibited cleavage of laminin 5 α3 chain”. The “cleavage of laminin 5 γ2 chain by mTLL-2” value (mTll-2) was “inhibited cleavage of laminin 5 γ2 chain”, the “inhibition of keratinocyte migration” value (keratinocytes) was “potently inhibit” and the “keratinocyte migration in transwells or over a scratch” value (keratinocytes; 10 μM) was “almost complete lack of migration”. For the same compound, the “inhibition of keratinocyte migration, dose dependence” value (keratinocytes; Boyden chamber and scratch assays) was “inhibition of KC migration in a dose-dependent manner”, the “dose required to achieve nearly complete inhibition of migration” value (keratinocytes; Boyden chambers) was 10 µM and the “migration of keratinocytes into the scratch” value [5] was “almost a complete lack of migration”. The “SCC-25 migration response compared with keratinocytes” value ([6]; 10 μM) was “identical response”, the “inhibition of SCC cell migration on type I collagen coated versus non-coated dishes” value ([6]; 10 μM, 48 hr) was “equally effective at inhibiting cell migration” and the “SCC-25 migration into the scratch” value ([6]; 10 μM, up to 48 hours) was “effective at preventing SCC-25 migration”. The “migration of SCC-25 into the scratch area, dose dependence” value ([6]; 1, 5, 10 μM, 48 hours) was “dose-dependent effect”, the “inhibition of keratinocyte migration on type I collagen coated versus non-coated dishes” value ([7]; 10 μM, 48 hr) was “equally effective at inhibiting cell migration” and the “migration of NIK into the scratch area, dose dependence” value ([7]; 1, 5, 8 μM, 48 hours) was “dose-dependent inhibition of migration”. For the same compound, the “migration of SCC-15 into the scratch area, dose dependence” value [8] was “dose-dependent effect”, the “inhibition of migration of squamous carcinoma cells” value (squamous carcinoma cells) was “potently inhibit” and the “resistance of treated cells to trypsin detachment” value (normal keratinocytes) was “more resistant to trypsin treatment”. For the same compound, the “invasion of SCC-25 cells” value (SCC-25 cells) was “able to inhibit the invasion”, the “invasion of SCC-15 cells” value (SCC-15 cells) was “able to inhibit the invasion” and the “invasion of SiHa cells” value (SiHa cells) was “not able to inhibit the invasion”. The “MTT toxicity, SCC-25” value (SCC-25) was “little or no toxicity”, the “MTT toxicity, SCC-15” value (SCC-15) was “little or no toxicity” and the “MTT toxicity, SiHa” value (SiHa) was “little or no toxicity”. For the same compound, the “migration of KLASV cells” value (KLASV cells; type I collagen coated dishes, 10 μM, 48 hr) was “not inhibited” and the “migration of KLASV cells into the scratch” value (KLASV cells; type I collagen coated wells, 24 hours, compared to non-treated control) was “significant migration into the scratch”.
